Measurements: publication PMC10980815, “Cell surface patching via CXCR4-targeted nanothreads for cancer metastasis inhibition” (Nature Communications, 2024)
Ends that are not written are not given here. HPMA copolymer = HPMA copolymer made by RAFT copolymerization of HPMA with N-(3-aminopropyl)methacrylamide (APMA), bearing maleimide groups for grafting

Key:
[1] = tested on: orthotopic 4T1 breast tumors; experiment: Hydroxyproline assay in tumor tissues; format: in vivo, female BALB/c mice; design: unit not given here
Description: (§1) 4T1 cells (1 × 10^6 cells) were injected into the third mammary fat pad of female BALB/c mice (6–8-week). […] On day 28, blood samples, lungs and tumors were harvested.
To assess fibrosis in tumor tissues, Masson staining, Sirius staining, immunofluorescent staining of α-SMA and fibronectin, and a quantitative hydroxyproline assay were employed. For immunofluorescent staining of α-SMA and fibronectin, tumor slices were stained with anti-alpha smooth muscle actin recombinant rabbit monoclonal antibody (1:500 dilution) and anti-fibronectin mouse monoclonal antibody (1:500 dilution) at 4 °C overnight, followed by staining with goat anti-mouse IgG H&L Alexa Fluor® 488 (1:1000 dilution) and goat anti-rabbit IgG H&L Alexa Fluor® 647 (1:1000 dilution).

[2] = tested on: orthotopic 4T1 breast tumors; experiment: EMT markers E-cadherin and vimentin in primary tumors (flow cytometry); format: in vivo, female BALB/c mice
Description: as §1
(§2) To investigate the epithelial-mesenchymal transition process in tumor tissues, immunofluorescent staining of E-cadherin, vimentin, MMP-9, and TGF-β, along with flow cytometry analysis of E-cadherin and vimentin, were applied. For immunofluorescent staining of E-cadherin and vimentin, tumor slices were stained with CoraLite® Plus 647 anti-mouse CD324 (E-cadherin, 1:300 dilution) and anti-vimentin mouse monoclonal antibody (1:500 dilution) at 4 °C overnight, followed by staining with goat anti-mouse IgG H&L Alexa Fluor® 488 (1:1000 dilution). For flow cytometry analysis of E-cadherin and vimentin, single-cell suspensions of tumor tissues were stained with CoraLite® Plus 647 anti-mouse CD324 (E-cadherin, 1:300 dilution) or sequentially stained with anti-vimentin recombinant rabbit monoclonal antibody and goat anti-rabbit IgG H&L Alexa Fluor® 647 (1:1000 dilution), respectively. For immunofluorescent staining of MMP-9 and TGF-β, tumor slices were separately stained with MMP9 Rabbit pAb (1:500 dilution) or anti-TGF beta 1 recombinant rabbit monoclonal antibody (1:500 dilution), followed by staining with goat anti-rabbit IgG H&L Alexa Fluor® 647 (1:1000 dilution), respectively.

MMP-9 and TGF-β = experiment: Immunofluorescence of MMP-9 and TGF-β in tumor tissues; format: in vivo, female BALB/c mice
Description: as §2

ζ-potential (Zetasizer) = format: physicochemical; conditions: Malvern Zetasizer Nano ZS90; mean ± SD
Description: The average molecular weight (Mw) and polydispersity (PDI) of the HPMA copolymer conjugates were determined by gel permeation chromatography (GPC) on an AKTA purifier equipment with a Superose 6 10/300 GL analytical column (GE Healthcare, USA) and a differential refraction detector (KNAUER, 2300, Germany). Hydrodynamic sizes and zeta potentials were determined using a Malvern Zetasizer Nano ZS90 equipment (Malvern Instruments Ltd, Malvern, UK). The contents of BS, CM1, and CM2 were determined using a bicinchoninic acid (BCA) protein assay. The PS concentration was determined by ultraviolet-visible (UV-Vis) spectroscopy at its characteristic absorbance peak (660 nm).

[3] = i.v. days 7, 14, 21 (5 mg/kg BS equivalence; P-CM2 24 h later), analysis day 28, mouse 1 of 5

LGASWHRPDKCCLGYQKRPLPA [Free BS]
hydroxyproline in tumor tissues (Fig. 6b) [1, 3]: 0.5754 | hydroxyproline in tumor tissues (Fig. 6b) ([1]; same, mouse 2 of 5): 0.4638 | hydroxyproline in tumor tissues (Fig. 6b) ([1]; same, mouse 3 of 5): 0.4618 | hydroxyproline in tumor tissues (Fig. 6b) ([1]; same, mouse 4 of 5): 0.441 | hydroxyproline in tumor tissues (Fig. 6b) ([1]; same, mouse 5 of 5): 0.4238 | Relative fluorescence intensity of E-cadherin ([2]; replicate 1): 125.013 | Relative fluorescence intensity of vimentin ([2]; replicate 1): 279.76 | Relative fluorescence intensity of E-cadherin ([2]; replicate 2): 109.513 | Relative fluorescence intensity of vimentin ([2]; replicate 2): 205.554 | Relative fluorescence intensity of E-cadherin ([2]; replicate 3): 122.233 | Relative fluorescence intensity of vimentin ([2]; replicate 3): 194.538 | Relative fluorescence intensity of E-cadherin ([2]; replicate 4): 126.237 | Relative fluorescence intensity of vimentin ([2]; replicate 4): 224.095 | Relative fluorescence intensity of E-cadherin ([2]; replicate 5): 145.15 | Relative fluorescence intensity of vimentin ([2]; replicate 5): 192.228 | Relative fluorescence intensity of MMP-9 in tumor tissues (MMP-9 and TGF-β; replicate 1): 143.238 | Relative fluorescence intensity of TGF-β in tumor tissues (MMP-9 and TGF-β; replicate 1): 172.974 | Relative fluorescence intensity of MMP-9 in tumor tissues (MMP-9 and TGF-β; replicate 2): 142.904 | Relative fluorescence intensity of TGF-β in tumor tissues (MMP-9 and TGF-β; replicate 2): 152.446 | Relative fluorescence intensity of MMP-9 in tumor tissues (MMP-9 and TGF-β; replicate 3): 138.899 | Relative fluorescence intensity of TGF-β in tumor tissues (MMP-9 and TGF-β; replicate 3): 165.051 | Relative fluorescence intensity of MMP-9 in tumor tissues (MMP-9 and TGF-β; replicate 4): 132.502 | Relative fluorescence intensity of TGF-β in tumor tissues (MMP-9 and TGF-β; replicate 4): 164.828 | Relative fluorescence intensity of MMP-9 in tumor tissues (MMP-9 and TGF-β; replicate 5): 136.888 | Relative fluorescence intensity of TGF-β in tumor tissues (MMP-9 and TGF-β; replicate 5): 159.609

P-BS: HPMA copolymer-BS conjugate, ~6 BS grafts per polymer (LGASWHRPDKCCLGYQKRPLPA; not fully specified (residues 11, 12); also: about 6 peptides grafted on HPMA copolymer via cysteine-maleimide thioether links)
ζ-potential (ζ-potential (Zetasizer)): -15.53±1.45 mV | hydroxyproline in tumor tissues (Fig. 6b) [1, 3]: 0.4104 | hydroxyproline in tumor tissues (Fig. 6b) ([1]; same, mouse 2 of 5): 0.397 | hydroxyproline in tumor tissues (Fig. 6b) ([1]; same, mouse 3 of 5): 0.3878 | hydroxyproline in tumor tissues (Fig. 6b) ([1]; same, mouse 4 of 5): 0.3734 | hydroxyproline in tumor tissues (Fig. 6b) ([1]; same, mouse 5 of 5): 0.3825 | Relative fluorescence intensity of E-cadherin ([2]; replicate 1): 136.747 | Relative fluorescence intensity of vimentin ([2]; replicate 1): 148.698 | Relative fluorescence intensity of E-cadherin ([2]; replicate 2): 140.523 | Relative fluorescence intensity of vimentin ([2]; replicate 2): 180.025 | Relative fluorescence intensity of E-cadherin ([2]; replicate 3): 162.569 | Relative fluorescence intensity of vimentin ([2]; replicate 3): 180.666 | Relative fluorescence intensity of E-cadherin ([2]; replicate 4): 158.855 | Relative fluorescence intensity of vimentin ([2]; replicate 4): 185.036 | Relative fluorescence intensity of E-cadherin ([2]; replicate 5): 155.981 | Relative fluorescence intensity of vimentin ([2]; replicate 5): 170.787 | Relative fluorescence intensity of MMP-9 in tumor tissues (MMP-9 and TGF-β; replicate 1): 108.085 | Relative fluorescence intensity of TGF-β in tumor tissues (MMP-9 and TGF-β; replicate 1): 144.596 | Relative fluorescence intensity of MMP-9 in tumor tissues (MMP-9 and TGF-β; replicate 2): 120.005 | Relative fluorescence intensity of TGF-β in tumor tissues (MMP-9 and TGF-β; replicate 2): 130.014 | Relative fluorescence intensity of MMP-9 in tumor tissues (MMP-9 and TGF-β; replicate 3): 113.377 | Relative fluorescence intensity of TGF-β in tumor tissues (MMP-9 and TGF-β; replicate 3): 139.806 | Relative fluorescence intensity of MMP-9 in tumor tissues (MMP-9 and TGF-β; replicate 4): 115.997 | Relative fluorescence intensity of TGF-β in tumor tissues (MMP-9 and TGF-β; replicate 4): 146.777 | Relative fluorescence intensity of MMP-9 in tumor tissues (MMP-9 and TGF-β; replicate 5): 97.611 | Relative fluorescence intensity of TGF-β in tumor tissues (MMP-9 and TGF-β; replicate 5): 131.749

P-CM2-Cy3: Cy3-labeled P-CM2 (C(HPMA copolymer)YGGEVSALEKEVSALEKKNSALEKEVSALEKEVSALEK; also: Cy3 label on conjugate, position not given here)
ζ-potential (ζ-potential (Zetasizer)): -9.21±0.67 mV
